Experimental data taken from US20230114728A1 (Venatorx Pharmaceuticals, Inc., priority 2019, published 2023).
In brackets after ≈: the same amount, converted by molar mass.

Experiments:
Type in all cases: cell-based
[1] = tested on: E. coli AG100; assay: Broth microdilution MIC in CAMHB; settings: Escherichia coli; E. coli AG100 (wild-type parent); MHB; read-out: Minimum Inhibitory Concentration, E. coli AG100
In short: (§1)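 Colonies from cation-adjusted Mueller Hinton agar are grown in broth (3-5 h, 37° C), adjusted by OD600, and added at 2-8×10^5 CFU/mL to 2-fold compound dilutions. After 16-20 h at 37° C, the lowest concentration without growth is taken as MIC.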

[2] = tested on: E. coli D22; assay: Broth microdilution MIC in CAMHB; settings: Escherichia coli; E. coli D22 (hyper-permeable); MHB; read-out: Minimum Inhibitory Concentration, E. coli D22
In short: as §1

[3] = tested on: E. coli AG100A; assay: Broth microdilution MIC in CAMHB; settings: Escherichia coli, read-out: Minimum Inhibitory Concentration, E. coli AG100A
In short: as §1

[4] = tested on: E. coli ATCC 25922; assay: Broth microdilution MIC in CAMHB; settings: Escherichia coli, ATCC25922; E. coli ATCC 25922; MHB; read-out: Minimum Inhibitory Concentration, E. coli 25922
In short: as §1

[5] = tested on: A. baumannii ATCC 19606; assay: Broth microdilution MIC in CAMHB; settings: Acinetobacter baumannii, ATCC19606; MHB; read-out: Minimum Inhibitory Concentration, A. baumannii ATCC 19606
In short: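 Per CLSI broth microdilution, colonies were grown 3-5 h at 37° C in cation-adjusted Mueller Hinton broth, then diluted to a starting inoculum of 2-8×10^5 CFU/mL against 2-fold serial compound dilutions. Plates were incubated 16-20 h at 37° C, and MIC was read visually as the lowest concentration with no growth.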

[6] = tested on: N. gonorrhoeae FA1090; assay: Liquid broth MIC in Fastidious broth; settings: Neisseria gonorrhoeae; N. gonorrhoeae strain FA1090; Fastidious broth; read-out: Minimum Inhibitory Concentration, N. gonorrhoeae FA1090
In short: (§2)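 Colonies were swabbed from chocolate agar after 24 h growth and standardised by optical density at 600 nm. Compounds were serially diluted twofold in Fastidious broth, and bacteria added to give 5×10^5 CFU/mL. After about 24 h at 36 °C in 5% CO2, the lowest concentration allowing under 10% growth was taken as MIC.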

[7] = tested on: N. gonorrhoeae WHO G; assay: Liquid broth MIC in Fastidious broth; settings: Neisseria gonorrhoeae; N. gonorrhoeae strain WHO G; Fastidious broth; read-out: Minimum Inhibitory Concentration, N. gonorrhoeae WHO G
In short: as §2

[8] = tested on: N. gonorrhoeae WHO K; assay: Liquid broth MIC in Fastidious broth; settings: Neisseria gonorrhoeae, read-out: Minimum Inhibitory Concentration, N. gonorrhoeae WHO K
In short: (§3)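 Mosaic-PBP2 strains grown 24 h on chocolate agar (36 °C, 5% CO2), then direct-suspended in saline and OD600-adjusted. Twofold compound dilutions in Fastidious broth inoculated at 5×10^5 CFU/mL and incubated ~24 h at 36 °C, 5% CO2. MIC read visually as lowest concentration with <10% growth versus full-growth wells.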

[9] = tested on: N. gonorrhoeae WHO L; assay: Liquid broth MIC in Fastidious broth; settings: Neisseria gonorrhoeae; N. gonorrhoeae strain WHO L; Fastidious broth; read-out: Minimum Inhibitory Concentration, N. gonorrhoeae WHO L
In short: as §2

[10] = tested on: N. gonorrhoeae ATCC 49226; assay: Liquid broth MIC in Fastidious broth; settings: Neisseria gonorrhoeae, ATCC49226; N. gonorrhoeae strain ATCC 49226; Fastidious broth; read-out: Minimum Inhibitory Concentration, N. gonorrhoeae ATCC 49226
In short: as §2

[11] = tested on: N. gonorrhoeae H041; assay: Liquid broth MIC in Fastidious broth; settings: Neisseria gonorrhoeae, H041, read-out: Minimum Inhibitory Concentration, N. gonorrhoeae H041
In short: as §3

CCN1CCN(C(=O)N[C@H](C(=O)N[C@H]2Cc3cccc(C(=O)O)c3OB2O)c2nc(Cl)c(C(=O)O)cc2F)C(=O)C1=O [Example 19, 6-((S)-2-(((R)-8-carboxy-2-hydroxy-3,4-dihydro-2H-benzo[e][1,2]oxaborinin-3-yl)amino)-1-(4-ethyl-2,3-dioxopiperazine-1-carboxamido)-2-oxoethyl)-2-chloro-5-fluoronicotinic acid]
MIC [1]: > 128 µg/mL
MIC [2]: 2 to 4 µg/mL (≈ 3.3 to 6.6 µM)
MIC [3]: 32 to 64 µg/mL (≈ 52.8 to 106 µM)
MIC [4]: > 128 µg/mL
MIC [5]: > 128 µg/mL
MIC [6]: 1 to 2 µg/mL (≈ 1.65 to 3.3 µM)
MIC [7]: 4 to 8 µg/mL (≈ 6.6 to 13.2 µM)
MIC [8]: > 64 µg/mL
MIC [9]: > 64 µg/mL
MIC [10]: 16 to 32 µg/mL (≈ 26.4 to 52.8 µM)
MIC [11]: > 64 µg/mL

CCN1CCN(C(=O)NC(C(=O)N[C@H]2Cc3cccc(C(=O)O)c3OB2O)c2ncc(C(=O)O)cc2F)C(=O)C1=O (stereo partly drawn) [Example 20, 6-(2-(((R)-8-carboxy-2-hydroxy-3,4-dihydro-2H-benzo[e][1,2]oxaborinin-3-yl)amino)-1-(4-ethyl-2,3-dioxopiperazine-1-carboxamido)-2-oxoethyl)-5-fluoronicotinic acid]
MIC [1]: 32 to 64 µg/mL (≈ 56 to 112 µM)
MIC [2]: 2 to 4 µg/mL (≈ 3.5 to 7 µM)
MIC [3]: 8 to 16 µg/mL (≈ 14 to 28 µM)
MIC [4]: > 128 µg/mL
MIC [5]: > 128 µg/mL
MIC [6]: 1 to 2 µg/mL (≈ 1.75 to 3.5 µM)
MIC [7]: 4 to 8 µg/mL (≈ 7 to 14 µM)
MIC [8]: 16 to 32 µg/mL (≈ 28 to 56 µM)
MIC [9]: > 64 µg/mL
MIC [10]: 4 to 8 µg/mL (≈ 7 to 14 µM)
MIC [11]: 16 to 32 µg/mL (≈ 28 to 56 µM)

CCN1CCN(C(=O)NC(C(=O)N[C@H]2Cc3cccc(C(=O)O)c3OB2O)c2ccc(O)c(N(S(C)(=O)=O)S(C)(=O)=O)c2)C(=O)C1=O (stereo partly drawn) [Example 21, (3R)-3-(2-(4-ethyl-2,3-dioxopiperazine-1-carboxamido)-2-(4-hydroxy-3-(N-(methylsulfonyl)methylsulfonamido)phenyl)acetamido)-2-hydroxy-3,4-dihydro-2H-benzo[e][1,2]oxaborinine-8-carboxylic acid]
MIC [1]: 32 to 64 µg/mL (≈ 46 to 92 µM)
MIC [2]: 2 to 4 µg/mL (≈ 2.88 to 5.75 µM)
MIC [3]: 2 to 4 µg/mL (≈ 2.88 to 5.75 µM)
MIC [4]: > 128 µg/mL
MIC [5]: > 128 µg/mL
MIC [6]: 4 to 8 µg/mL (≈ 5.75 to 11.5 µM)
MIC [7]: > 64 µg/mL
MIC [8]: > 64 µg/mL
MIC [9]: > 64 µg/mL
MIC [10]: > 64 µg/mL
MIC [11]: > 64 µg/mL

CCN1CCN(C(=O)NC(C(=O)N[C@H]2Cc3cccc(C(=O)O)c3OB2O)c2ccc(O)c(NS(C)(=O)=O)c2)C(=O)C1=O (stereo partly drawn) [Example 22, (3R)-3-(2-(4-ethyl-2,3-dioxopiperazine-1-carboxamido)-2-(4-hydroxy-3-(methylsulfonamido)phenyl)acetamido)-2-hydroxy-3,4-dihydro-2H-benzo[e][1,2]oxaborinine-8-carboxylic acid]
MIC [1]: 32 to 64 µg/mL (≈ 51.8 to 104 µM)
MIC [2]: 2 to 4 µg/mL (≈ 3.24 to 6.48 µM)
MIC [3]: 2 to 4 µg/mL (≈ 3.24 to 6.48 µM)
MIC [4]: 32 to 64 µg/mL (≈ 51.8 to 104 µM)
MIC [5]: > 128 µg/mL
MIC [6]: 1 to 2 µg/mL (≈ 1.62 to 3.24 µM)
MIC [7]: 16 to 32 µg/mL (≈ 25.9 to 51.8 µM)
MIC [8]: > 64 µg/mL
MIC [9]: > 64 µg/mL
MIC [10]: > 64 µg/mL
MIC [11]: > 64 µg/mL

NCCN1CCN(C(=O)NC(C(=O)N[C@H]2Cc3ccc(F)c(C(=O)O)c3OB2O)c2nc(N)sc2F)C(=O)C1=O (stereo partly drawn) [Example 24, (3R)-3-(2-(2-amino-5-fluorothiazol-4-yl)-2-(4-(2-aminoethyl)-2,3-dioxopiperazine-1-carboxamido)acetamido)-7-fluoro-2-hydroxy-3,4-dihydro-2H-benzo[e][1,2]oxaborinine-8-carboxylic acid]
MIC [1]: 32 to 64 µg/mL (≈ 55 to 110 µM)
MIC [2]: 8 to 16 µg/mL (≈ 13.8 to 27.5 µM)
MIC [3]: 8 to 16 µg/mL (≈ 13.8 to 27.5 µM)
MIC [4]: 32 to 64 µg/mL (≈ 55 to 110 µM)
MIC [5]: > 128 µg/mL
MIC [6]: 16 to 32 µg/mL (≈ 27.5 to 55 µM)
MIC [7]: 16 to 32 µg/mL (≈ 27.5 to 55 µM)
MIC [8]: > 64 µg/mL
MIC [9]: > 64 µg/mL
MIC [10]: > 64 µg/mL
MIC [11]: > 64 µg/mL
